Reference: US11802111B2, “Cyclobutyl amide monoacylglycerol lipase modulators” (Janssen Pharmaceutica NV, priority 2020, dated 2023)

Molecular target: human MGL from HeLa cells (Homo sapiens (Human), UniProt Q99685)
Assay: MGL in vitro activity assay ([glycerol-1,3-3H]-oleoyl glycerol hydrolysis, activated carbon filtration)
Format: biochemical
Conditions: 300 nM [Glycerol-1,3-3H]-oleoyl glycerol, one hour
Method in brief: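 Endogenous human MGL in HeLa cells/homogenates incubated 1 h with test compounds and 300 nM [glycerol-1,3-3H]-oleoyl glycerol. Released 3H-glycerol passing an activated carbon filter counted as activity; screening at 10 μM compound, top IC50 concentration set empirically.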

Chain of human MGL from HeLa cells (Q99685 whole entry): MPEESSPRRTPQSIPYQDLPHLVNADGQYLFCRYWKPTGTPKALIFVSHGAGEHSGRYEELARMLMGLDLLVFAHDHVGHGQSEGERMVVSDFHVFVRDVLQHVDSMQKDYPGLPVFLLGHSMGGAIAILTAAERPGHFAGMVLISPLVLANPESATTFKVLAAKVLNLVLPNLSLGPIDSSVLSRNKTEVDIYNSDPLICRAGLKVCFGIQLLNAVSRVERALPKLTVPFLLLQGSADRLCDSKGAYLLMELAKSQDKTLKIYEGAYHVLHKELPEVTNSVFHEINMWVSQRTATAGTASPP

SMILES	IC50 [nM]
CC(C)(C)c1ccnc(CC2CC3(C2)CN(C(=O)[C@H]2C[C@@](C)(O)C2)C3)c1 [Example 190, (6-((4-(tert-Butyl)pyridin-2-yl)methyl)-2-azaspiro[3.3]heptan-2-yl)((1s,3s)-3-hydroxy-3-methylcyclobutyl)methanone]	73
COc1cccc(CC2CC3(C2)CN(C(=O)[C@H]2C[C@@](C)(O)C2)C3)n1 [Example 191, ((1s,3s)-3-Hydroxy-3-methylcyclobutyl)(6-((6-methoxypyridin-2-yl)methyl)-2-azaspiro[3.3]heptan-2-yl)methanone]	159
COc1ccc(CC2CC3(C2)CN(C(=O)[C@H]2C[C@@](C)(O)C2)C3)cc1 [Example 192, ((1s,3s)-3-Hydroxy-3-methylcyclobutyl)(6-(4-methoxybenzyl)-2-azaspiro[3.3]heptan-2-yl)methanone]	22
C[C@]1(O)C[C@@H](C(=O)N2CC3(CC(Cc4cccc(C(F)(F)F)c4)C3)C2)C1 [Example 193, ((1s,3s)-3-Hydroxy-3-methylcyclobutyl)(6-(3-(trifluoromethyl)benzyl)-2-azaspiro[3.3]heptan-2-yl)methanone]	5.8
C[C@]1(O)C[C@@H](C(=O)N2CC3(CC(Cc4cccc(OC(F)(F)F)c4)C3)C2)C1 [Example 194, ((1s,3s)-3-Hydroxy-3-methylcyclobutyl)(6-(3-(trifluoromethoxy)benzyl)-2-azaspiro[3.3]heptan-2-yl)methanone]	4.9
C[C@]1(O)C[C@@H](C(=O)N2CC3(CC(Cc4ccc(C(F)(F)F)cc4)C3)C2)C1 [Example 195, ((1s,3s)-3-Hydroxy-3-methylcyclobutyl)(6-(4-(trifluoromethyl)benzyl)-2-azaspiro[3.3]heptan-2-yl)methanone]	4.2
C[C@]1(O)C[C@@H](C(=O)N2CC3(CC(Cc4ccccc4OC(F)(F)F)C3)C2)C1 [Example 196, ((1s,3s)-3-Hydroxy-3-methylcyclobutyl)(6-(2-(trifluoromethoxy)benzyl)-2-azaspiro[3.3]heptan-2-yl)methanone]	2.8
COc1cccc(CC2CC3(C2)CN(C(=O)[C@H]2C[C@@](C)(O)C2)C3)c1 [Example 197, ((1s,3s)-3-Hydroxy-3-methylcyclobutyl)(6-(3-methoxybenzyl)-2-azaspiro[3.3]heptan-2-yl)methanone]	64
C[C@]1(O)C[C@@H](C(=O)N2CC3(CC(Cc4ccc5ccccc5n4)C3)C2)C1 [Example 198, ((1s,3s)-3-Hydroxy-3-methylcyclobutyl)(6-(quinolin-2-ylmethyl)-2-azaspiro[3.3]heptan-2-yl)methanone]	56
C[C@]1(O)C[C@@H](C(=O)N2CC3(CC(Cc4ccccc4C(F)(F)F)C3)C2)C1 [Example 199, ((1s,3s)-3-Hydroxy-3-methylcyclobutyl)(6-(2-(trifluoromethyl)benzyl)-2-azaspiro[3.3]heptan-2-yl)methanone]	4.1
Cc1cc(CC2CC3(C2)CN(C(=O)[C@H]2C[C@@](C)(O)C2)C3)ccc1C1CC1 [Example 202, (6-(4-Cyclopropyl-3-methylbenzyl)-2-azaspiro[3.3]heptan-2-yl)((1s,3s)-3-hydroxy-3-methylcyclobutyl)methanone]	0.6
C[C@]1(O)C[C@@H](C(=O)N2CC3(CC(Cc4ccncc4)C3)C2)C1 [Example 206, ((1s,3s)-3-Hydroxy-3-methylcyclobutyl)(6-(pyridin-4-ylmethyl)-2-azaspiro[3.3]heptan-2-yl)methanone]	1140
Cc1cccc(CC2CC3(C2)CN(C(=O)[C@H]2C[C@@](C)(O)C2)C3)c1C1CC1 [Example 207, (6-(2-Cyclopropyl-3-methylbenzyl)-2-azaspiro[3.3]heptan-2-yl)((1s,3s)-3-hydroxy-3-methylcyclobutyl)methanone]	1.7
CC(C)(C)c1ccccc1CC1CC2(C1)CN(C(=O)[C@H]1C[C@@](C)(O)C1)C2 [Example 208, (6-(2-(tert-Butyl)benzyl)-2-azaspiro[3.3]heptan-2-yl)((1s,3s)-3-hydroxy-3-methylcyclobutyl)methanone]	5.3
